Experimental data as given in patent publication US20010049113A1, “Diagnosis and treatment of herpes infections” (priority 2000, published 2001).

How the values were obtained:
HSV-1 [1] = assay: Immunofluorescence of HSV-1-infected A549 cells; format: cell-based; details: 100 μM FTI-1
HSV-1 [2] = assay: HSV-1 viral protein synthesis in PKR+/+ and PKR-/- mouse embryo fibroblasts, Western blot; format: cell-based; details: MOI 0.5 PFU/cell, 20 hr post-infection
Protocol: The PKR^+/^+ and PKR^−/^− mouse embryo fibroblasts were obtained from Dr. B. R. G. Williams (the Cleveland Clinic Foundation) and were grown in α-MEM containing 10% FBS and antibiotics, as described.
Western blot (Immunoblot) analysisinfected cells were lysed with the single detergent lysis buffer [50 mM Tris (pH 8.0), 150 mM NaCI, 0.02% sodium azide, 100 μg/ml phenylmethy-sulfonyl fluoride, 1 μg/ml aprotinin, and 1% Triton X-100], normalized for the amount of total protein and subjected to SDS-PAGE, followed by electroblotting onto nitrocellulose paper. The membrane was then washed and incubated with the primary antibody [rabbit antibody against all HSV-1 antigens (Dako, CA.; 1:20,000); mouse anti-ICP27 or anti-gC antibody (Rumbaugh-Goodwin Institute, FL; 1:1,000); rabbit anti-ICP8 antibody (from Dr. Paul Olivo, Washington University, St. Louis; 1:1,000); mouse anti-PKR and mouse anti-eIF-2 α antibody (Santa Cruz; 1:1,000); rabbit anti-phospho-PKR and rabbit antiphospho-eIF-2 α antibody (Biosource, CA; 1:1,000) followed by HRP-conjugated secondary antibody (1:2,000). […]
The level of infection by R3616 in PKR^−/^− fibroblasts is equivalent to that seen in cells transformed by Ras, or elements of the Ras pathway. […] Cells were harvested at 20 hr post-infection and analyzed for viral proteins as above. […]

HSV-1 [3] = assay: HSV-1 viral protein synthesis in infected H-ras transformed NIH-3T3 cells, Western blot with rabbit anti-HSV-1 antibody; format: cell-based, HSV-1 (strain F); details: for production of viral proteins / HSV-1 infection / infectivity (summary statement): H-ras transformed NIH-3T3 cells; for production of viral proteins: 22 hours post-infection
Protocol: (§1) Western blot (Immunoblot) analysisinfected cells were lysed with the single detergent lysis buffer [50 mM Tris (pH 8.0), 150 mM NaCI, 0.02% sodium azide, 100 μg/ml phenylmethy-sulfonyl fluoride, 1 μg/ml aprotinin, and 1% Triton X-100], normalized for the amount of total protein and subjected to SDS-PAGE, followed by electroblotting onto nitrocellulose paper. The membrane was then washed and incubated with the primary antibody [rabbit antibody against all HSV-1 antigens (Dako, CA.; 1:20,000); mouse anti-ICP27 or anti-gC antibody (Rumbaugh-Goodwin Institute, FL; 1:1,000); rabbit anti-ICP8 antibody (from Dr. Paul Olivo, Washington University, St. Louis; 1:1,000); mouse anti-PKR and mouse anti-eIF-2 α antibody (Santa Cruz; 1:1,000); rabbit anti-phospho-PKR and rabbit antiphospho-eIF-2 α antibody (Biosource, CA; 1:1,000) followed by HRP-conjugated secondary antibody (1:2,000). After extensive washing, the blot was exposed to Lumigel detection solution (New England Biolabs) and subjected to autoradiography.
H-ras transformed NIH-3T3 cells were exposed to the farnesyl transferase inhibitors FTI-1 at a final concentration 50 μM or 100 μM in the culture medium. Control cells were not exposed to inhibitor. At 22 hours post-infection the cells were harvested and Western blot analysis was performed on these samples using rabbit anti-HSV-1 antibody, as described above.
To determine whether other inhibitors of farnesyl transferase would have the same effect on viral protein synthesis, three additional inhibitors were tested. H-ras transformed NIH-3T3 cells were exposed to the farnesyl transferase inhibitors FPTI-1, FPTI-2 and FTI-4 at a final concentration 150 μM, 150 μM or or 50 μM in the culture medium. Control cells were not exposed to inhibitor. At 22 hours postinfection the cells were harvested and Western blot analysis was performed on these samples using rabbit anti-HSV-1 antibody, as described above.
HSV-1 infected H-ras transformed NIH-3T3 cells were exposed to 40 μM PD98059 in the culture medium. Control cells (HSV-1 infected) were not exposed to PD98059. At 22 hours post-infection, the cells were harvested and Western blot analysis was performed on these samples using rabbit anti-HSV antibody, as described above.
P-13 Kinase Pathway is Not Involved in HSV-1 InfectionH-ras cells that were infected with HSV-1 were exposed to Wortmannin at a final concentration of 200 nM for the entire duration of the infection. Cells were harvested at 22 hr. post infection, lysed and subjected to SDS PAGE followed by immunoblotting with a rabbit anti-HSV-1 antibody.

PKR phosphorylation = PKR phosphorylation in HSV-1 infected H-ras cells, immunoblot with anti-PKR / anti-phospho-PKR; format: cell-based, murine
Protocol: as §1
H-ras cells were exposed to FTI-1 (100 μM) or PD98059(40 μM) and the phosphorylation state of PKR was assessed using anti-PKR (total PKR) or anti-phospho-PKR (P-PKR) antibodies . […] The difference in phosphorylation of PKR in infected NIH-3T3 cells and in infected MEF cells is shown in the right side of FIG. 10, Panel “B”.

[4] = test system: ERK1/2 (Erk42/44) phosphorylation; assay: ERK1/2 phosphorylation in H-ras cells, Western blot; format: cell-based, murine
From the text: (§2) Briefly, subconfluent monolayer cultures were lysed with the recommended SDS-containing sample buffer, the lysate was subjected to SDS-PAGE and electroblotted onto nitrocellulose paper. Blots were probed with anti-ERK1/2 or anti-phospho-ERK1/2 antibodies (for samples treated with FTI-1 or PD98059), anti-ATF-2 or anti-phospho-ATF-2 (for samples treated with SB203580), and anti-Akt and anti-phospho-Akt (for samples treated with Wortmannin). The antibody kits were purchased from New England Biolabs (MA). FTI-1, PD98059, SB203580 and Wortmannin were purchased from Calbiochem (CA).

HSV-1 [5] = assay: HSV-1 virus yield from H-ras transformed cells, plaque titration on Vero cells; format: cell-based; details: MOI 0.5 PFU/cell, harvested 22 hours post infection, inhibitor present for entire infection
ATF-2 phosphorylation = ATF-2 phosphorylation in H-ras cells, Western blot; format: cell-based, murine; details: SB203580
From the text: as §2

| SMILES | level of viral proteins detected by immunofluorescence (HSV-1 [1]) | HSV-1 infection (viral protein synthesis) (HSV-1 [2]; PKR+/+ cells) | HSV-1 infection (viral protein synthesis) (HSV-1 [2]; PKR-/- cells) | production of viral proteins (HSV-1 [3]; FTI-1 50 μM or 100 μM in culture medium, vs control without inhibitor) | HSV-1 infection / infectivity (summary statement) (HSV-1 [3]) | PKR phosphorylation (PKR phosphorylation; FTI-1 100 μM) | phosphorylation of ERK1/2 (ERK42/44) ([4]; FTI-1 50 μM or 100 μM) | virus yield (plaque titration on Vero cells) (HSV-1 [5]) | production of viral proteins (HSV-1 [3]; 40 μM PD98059, vs control) | PKR phosphorylation (PKR phosphorylation; PD98059 40 μM) | phosphorylation of ERK1/2 (Erk42/44) ([4]; PD98059 40 μM) | phosphorylation of ATF-2 (ATF-2 phosphorylation) | effect on HSV-1 infection (viral proteins, immunoblot) (HSV-1 [3]; SB203580 at effective doses, H-ras transformed cells) |
| --- | --- | --- | --- | --- | --- | --- | --- | --- | --- | --- | --- | --- | --- |
| CSCC[C@H](NC(=O)[C@H](Cc1ccccc1)NC[C@@H](NC[C@@H](N)CS)C(C)C)C(=O)O [FTI-1] | dramatically reduces the level of viral proteins detected | inhibited HSV-1 infection | no effect | drastically reduced | effectively block HSV-1 infection | PKR phosphorylation is restored | reduced phosphorylation of ERK1/2 | dramatically decreased virus yield |  |  |  |  |  |
| COc1cccc(-c2cc(=O)c3ccccc3o2)c1N [PD98059] |  |  |  |  | partially blocked HSV-1 infection |  |  | dramatically decreased virus yield | reduced | PKR phosphorylation is restored | lack of phosphorylation of ERK1/2 |  |  |
| C[S+]([O-])c1ccc(-c2nc(-c3ccncc3)c(-c3ccc(F)cc3)[nH]2)cc1 (centres unmarked) [SB203580] |  |  |  |  | neither SB203580 [11] a specific inhibitor of p38 kinase, or Wortmannin [12] a specific inhibitor of P13-kinase, had any measurable effect |  |  | does not effect virus yield |  |  |  | lack of phosphorylation of ATF-2 | no effect on HSV-1 infection |
